Source: patent US7383788B2, “Enhanced feeding and growth rates of aquatic animals fed an astaxanthin product derived from marigold extract” (DSM IP Assets B.V., priority 2002, dated 2008)

What was measured:
Rainbow trout = test: Field trial on rainbow trout in a commercial fish farm (pigmentation and growth); format: in vivo; details: 90 ppm in feed
Procedure: A field trial with Rainbow Trout was done to assess pigmentation and growth in a commercial fish farm. The fish were grown in concrete raceways where fish were stocked in two sections of different raceways. In one section we had the control treatment which was fed with feed containing synthetic astaxanthin at 90 ppm. […] The water temperature was constant at 16° C. throughout the test as was the flow rate at 60 1/sec. Fish were fed to satiate, feed consumed was weighed for each treatment and conversion rates calculated based on the initial and final biomass.

[1] = tested on: Penaeid shrimp (Litopenaeus vannamei); test: Field trial on a commercial shrimp farm using several pigment sources to evaluate production; format: in vivo
Excerpt: Penaeid shrimp (Litopenaeus vannamei) with an average initial weight of 0.96 gr were stocked at a density of 25.04 individuals/square meter in […]. There were three ponds for each treatment to give a total of 12 ponds. The size of the ponds differed slightly as shown in Table 3 where a summary of the yields obtained after harvesting are also presented. All ponds were fed with the same diets varying only in the type of pigment used and keeping one as a control without pigment addition. Weight of feed supplied to each pond was recorded daily and the feed conversion ratio calculated after harvesting. Culture of the shrimp was done following normal commercial procedures and doing exactly the same operations in all ponds.

CC1=C(/C=C/C(C)=C/C=C/C(C)=C/C=C/C=C(C)/C=C/C=C(C)/C=C/C2=C(C)C(=O)[C@@H](O)CC2(C)C)C(C)(C)C[C@H](O)C1=O [Synthetic astaxanthin, astaxanthin]
Average Wt gain (Rainbow trout): 0.188 kg | Average end Wt (Rainbow trout): 0.337 kg | Conv. Ratio (Rainbow trout; based on initial and final biomass): 1.56 | average weight gain (Rainbow trout; end of feeding trial): 188 grams | Feed consumed (Rainbow trout; fed to satiate): 125.2 kg | Final Biomass (Rainbow trout; fed to satiate, 16° C.): 154.6 kg | Harvest Kg/Hect ([1]; 25 ppm pigment in feed): 1,283 Kg/Hect | % Survival ([1]; 25 ppm pigment in feed, at harvest after 92-100 days): 66.5% | Feed Conv Ratio ([1]; 25 ppm pigment in feed, calculated after harvesting): 1.62 | Harvest Kg ([1]; 25 ppm pigment in feed, three ponds): 18,729 Kg | survival rate (in words) ([1]; after harvesting): low survival rate
